Series [1] can be described thus: Prodrug conversion in simulated gastric fluid at pH 1.2 after 48 hrs by HPLC analysis. The format is ADME. Conditions: simulated gi fluid, pH 1.2, 48 h.
In series [2] the test system is Liver microsome. Briefly: Prodrug conversion in rat liver microsomes at 10 uM after 1.5 hrs by LC/MS/MS analysis. The format is ADME. Background: Microsomes from liver hold many membrane-bound enzymes, among them those of drug oxidation.
The target in series [3] is Glutamate carboxypeptidase 2 (Homo sapiens, UniProt Q04609). Briefly: Inhibition of human recombinant GCP2 using N-acetyl-L-aspartyl[3H]-L-glutamate as substrate.
Sequence of Glutamate carboxypeptidase 2 (Q04609 whole entry): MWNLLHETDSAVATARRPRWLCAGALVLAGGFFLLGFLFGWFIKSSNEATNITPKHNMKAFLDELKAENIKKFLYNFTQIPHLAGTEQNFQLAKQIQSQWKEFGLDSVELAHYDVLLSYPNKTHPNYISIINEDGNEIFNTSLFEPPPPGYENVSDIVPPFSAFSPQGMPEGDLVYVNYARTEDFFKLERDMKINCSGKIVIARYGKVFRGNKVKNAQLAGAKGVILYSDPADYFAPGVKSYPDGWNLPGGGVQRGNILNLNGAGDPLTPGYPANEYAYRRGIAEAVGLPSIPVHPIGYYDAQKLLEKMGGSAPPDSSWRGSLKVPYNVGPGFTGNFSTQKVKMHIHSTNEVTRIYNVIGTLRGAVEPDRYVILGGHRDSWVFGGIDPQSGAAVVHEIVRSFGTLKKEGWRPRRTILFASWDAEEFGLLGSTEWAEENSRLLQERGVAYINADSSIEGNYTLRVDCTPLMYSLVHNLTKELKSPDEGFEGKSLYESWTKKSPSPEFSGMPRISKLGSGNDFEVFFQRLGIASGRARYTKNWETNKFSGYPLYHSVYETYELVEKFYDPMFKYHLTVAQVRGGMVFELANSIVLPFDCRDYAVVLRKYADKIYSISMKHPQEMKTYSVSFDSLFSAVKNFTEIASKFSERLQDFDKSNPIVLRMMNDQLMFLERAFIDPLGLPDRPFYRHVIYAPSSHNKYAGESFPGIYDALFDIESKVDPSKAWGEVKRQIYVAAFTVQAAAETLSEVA
For another series, the system named is Rattus norvegicus. The experiment in a line: Antinociceptive effect in rat chronic constriction injury model of neuropathic pain assessed as reduction of CCI-induced thermal hyperalgesia at 10 mg/kg/day, po after 11 to 18 days relative to vehicle-treated control. The format is functional, organism-based.
A further series has as its system Plasma. The experiment in a line: Prodrug conversion in rat plasma assessed as 2-MPPA formation at 10 mg/kg, po after 0.25 to 3 hrs. The format is ADME, organism-based. The conditions noted are these: in vivo. On the set-up: dose 10 mg/kg, route oral.
Series [4] has as its system Liver microsome. Briefly: Prodrug conversion in rat liver microsomes assessed as 2-MPPA formation at 10 uM by LC/MS/MS analysis. The format is ADME. Conditions: TDE = time-dependent effect.

pIC50: −log10 of the molar value. Activity calls are given as the source filed them. No cut-off for these calls is given here.

A word on the pIC50: it is the IC50 on a negative log10 scale, so that one unit is a factor of ten. For the compound `O=C(O)c1cccc(-c2cccc3c2C(=O)SCC3)c1`, the Stability result (in series [1]; in the series on Liver microsome [2]) was “Stable” each time. Besides, in series [3], the pIC50 was 4.70.

As to `O=C(O)CCC1CCCSC1=O` (racemic), in series [1], the Stability entry was “Stable”. Further, the result with Rattus norvegicus was Active. Further, the Drug metabolism result in the series on Plasma was “Active”. In addition, the pIC50 in series [3] was 5.70.

On to `O=C(O)CCC(CCCS)C(=O)O` (stereo not drawn), for which, in the series on Liver microsome [4], the Activity entry is given as “tde”.

The record behind these values is ChEMBL document CHEMBL3112468, “δ-Thiolactones as prodrugs of thiol-based glutamate carboxypeptidase II (GCPII) inhibitors” (J Med Chem, 2014).
